Read-outs that look alike come from different tables or passages of the source.
Assays:
[1] = Spectroscopic properties of the target conjugates in PBS; assay type: physicochemical
Description: All starting materials were obtained from commercial suppliers and used without further purification. Analytical thin-layer chromatography (TLC) was performed on silica gel 60 F254 precoated aluminum TLC plates from Merck. Flash column chromatography was performed on Teledyne Isco CombiFlash® Rf+ automated flash chromatographer with silica gel (25-40 μm) from Zeochem. NMR spectra were recorded on a Varian Inova 500 MHz spectrometer. Chemical shifts (δ) are given in parts per million (ppm) using solvent signals or TMS as the reference. Coupling constants (J) are reported in Hertz (Hz). Analytical RP-HPLC-UV/Vis-MS measurements were employed using a Shimadzu LCMS-2020 instrument applying a Gemini C18 column (100×2.00 mm I.D.) in which the stationary phase is […] with a pore size of 110 Å. The chromatograms were detected by a UV-Vis diode array (190-800 nm) and an ESI-MS detector. The following linear gradient elution profile was applied, 0 min 0% B; 6.5 min 100% B; 7 min 0% B; 8 min. 0% B) with eluent A (2% HCOOH, 5% MeCN and 93% water) and B (2% HCOOH, 80% MeCN and 18% water) at a flow rate of 1.0 mL min-1 at 30° C. The samples were dissolved in MeCN—water mixtures. Spectroscopic measurements were performed on a Jasco FP 8300 spectrofluorometer. Quartz cuvettes with path length of 1 cm were used.
The spectroscopic properties of the target conjugates were determined in PBS. […] Compounds with Q=O have absorption bands in the green-yellow region while Q=CMe2 derivatives absorb in the red (up to 700 nm). All of the compounds have moderate to high absorption coefficients and significant fluorescence. The spectroscopic details can be found in Table 1. In the table, λmax means absorption maximum; λem means fluorescence emission maximum; s means molar absorption coefficient (at the absorption maximum).

SK-OV-3 cells = test: Cytotoxicity determination, MTT assay, with light irradiation and in the dark; assay type: cell-based, human
Description: A viability test was carried out to assess the toxicity of SN38 as well as the photoremovable protecting group-SN38 conjugates X1′-SN38 and X2′-SN38 after light irradiation and in the dark on SKOV3 cells. Cells were transferred into a 48-well plate (Thermo Fisher Scientific, 130187) (4,500 cells/well) and incubated for 20-24 h at 37° C. in a 5% CO2 atmosphere in McCoy's 5A (Modified) Medium, HEPES (Gibco 22330021) supplemented with 10% FBS (Gibco 10500-064), 1% penicillin-streptomycin (Gibco 15140-122). Cells were treated with compounds in the concentration range of 10^−11-10^−4 M for 90 min followed by light irradiation or kept in the dark at 37° C. in 5% CO2 atmosphere. After treatment and irradiation, cells were kept at 37° C. in 5% CO2 atmosphere for 72 hours. After the incubation period, supernatants were replaced with 0.5 mg/ml MTT (3-(4,5-dimethylthiazol-2-yl)-2,5-diphenyltetrazolium bromide; Sigma M5655-1G) solution (in complete DMEM: Dulbecco's modified Eagle's medium (DMEM, Gibco 41965-039), supplemented with 10% FBS (Gibco 10500-064), 1% penicillin-streptomycin (Gibco 15140-122), 1% Glutamax (Gibco 35050-061) and 1% sodium pyruvate (Life Technologies, Gibco 11360-070)) and incubated for 120 min at 37° C. in the dark. The insoluble formazan crystals were dissolved in 250 μl DMSO. Absorbance was detected at 540 nm using a Biotek Synergy 2 Cytation 3 imaging plate reader with Gen5 software version 3.08 (Biotek Winooski, VT, USA). Viability was expressed as percentage (n=3) of the readings of untreated control cells.
To determine phototoxic properties of compounds X1′-SN38 and X2′-SN38, standard MTT assays were performed on SK—OV-3 cells. To irradiate multiple specimens, an LED panel was custom-made for a 48-well plate consisting of 24 LEDs using green (4 W input power, λmax=549 nm half-width: 16 nm, output power: 72 mW), orange (4 W input power, λmax=605 nm half-width: 10 nm, output power: 140 mW) and red (4 W input power, λmax=658 nm half-width: 10 nm, for Q=CMe2 output power: 210 mW) LED irradiation. The board was specifically designed for the plates and offer water cooling to minimize heat shock to cells. Every second well can be irradiated with an individual LED. First, the cytotoxicity of the free active agent, SN38 was determined to be EC50 ^˜6 nM. Treatment of cells with the photoactivatable SN38 derivatives for 72 hours in the absence of light (without washing) produced moderate cytotoxic effects, sigificantly lowering the effectiveness of the active agent. This confirms that SN38 is a suitable candidate for light-activated prodrug applications. […] Reducing the irradiation time down to 10 s still produced significant phototoxicity in higher concentrations (see FIG. 8a for compound X2′-SN38) even assuming incomplete uncaging as a result of the substantial dark stability of compound X2′-SN38.

CCc1c2c(nc3ccc(OC(=O)N(C)CCN(C)C(=O)OC(C)c4c5ccc(=[N+]6CCCC6)cc-5oc5cc(N6CCCC6)ccc45)cc13)-c1cc3c(c(=O)n1C2)COC(=O)C3(O)CC.[I-] (mixture of isomers) [X1′-SN38]
λem (fluorescence emission maximum) [1]: 594 nm | λmax (absorption maximum) [1]: 575 nm | ε (molar absorption coefficient) ([1]; at the absorption maximum): 61 200 M^−1cm^−1 | EC50 (SK-OV-3 cells; dark, (green) series, read-out: Dark EC50 values): 4000 nM | EC50 (SK-OV-3 cells; dark, (orange) series, read-out: Dark EC50 values): 1100 nM | EC50 (SK-OV-3 cells; green light irradiation, 15 min, read-out: EC50 values after irradiation): 63 nM | Photoindex (SK-OV-3 cells; green light, 15 min): 64 | Photoindex (SK-OV-3 cells; orange light, 5 min): 45 | EC50 (SK-OV-3 cells; orange light, 5 min, read-out: EC50 values after irradiation): 23 nM

— US20260055118A1, “VISIBLE LIGHT SENSITIVE PHOTOREMOVABLE PROTECTING GROUPS, PREPARATION PROCESS THEREOF, PHOTOACTIVATABLE CONJUGATES COMPRISING THEM AND USES THEREOF” (HUN-REN TERMÉSZETTUDOMÁNYI KUTATÓKÖZPONT, priority 2022, published 2026)
